Measurements published in patent US20190328845A1, “IN VIVO SYNTHESIS OF ELASTIC FIBER” (ALLERGAN PHARMACEUTICALS INTERNATIONAL LIMITED, priority 2011, published 2019).

Key:
Dermal human fibroblasts = assay: Elastic fiber formation in the presence of lysyl oxidase inhibitor; assay type: cell-based; conditions: BAPN added at various time points relative to tropoelastin addition; 72 hours culture
Description: The effect of the lysyl oxidase inhibitor BAPN on elastic fiber formation in this system was studied.
Dermal human fibroblasts were grown for 12 days prior to tropoelastin addition as described. Cells were cultured for a further 72 hours after tropoelastin addition. BAPN was added at various time points relative to tropoelastin addition. Samples were stained for elastin and nuclei as described above.

human skin fibroblasts = assay: In vitro assay system for elastic fiber synthesis, human skin fibroblasts; assay type: cell-based; conditions: 7 days
Description: Cells were cultured in Dulbecco's Modified Eagle Medium High Glucose (DMEM; Invitrogen) containing 10% fetal bovine serum (FBS; Invitrogen) and 1% (v/v) penicillin/streptomycin (Invitrogen). Media were changed every 2-3 days. Cells were incubated at 37° C. and 5% CO2. To assess the capacity of cells to form elastin fibers 1×10^5 cells were seeded onto glass coverslips in 12 well culture plates. Ten to 17 days post-seeding full-length tropoelastin (Elastagen), or an alternative elastin-derived protein, in PBS was filter-sterilized and added to the cell cultures. Alternative elastin-derived proteins included human skin elastin peptides (Elastin Products Company; HSP72), a C-terminal tropoelastin deletion construct ARKRK (Weiss lab) and a C-terminal tropoelastin substitution construct containing RGDS (Weiss lab). Fiber formation was also assessed in the presence of 50 μM blebbistatin (Sigma). For experiments assessing the effect of repeated tropoelastin additions the protein was added 10, 17 and 24 days post-seeding. Cell matrix thickness was determined by averaging the number of 0.41 μm z slices required to image from the uppermost nuclei to the bottom of the sample in ten randomly chosen fields of view.
At set time points after tropoelastin addition, cells were fixed with either 3% (w/v) formaldehyde or 4% (w/v) paraformaldehyde for 20 min and quenched with 0.2 M glycine. […]

N#CCCN [BAPN]
elastic fiber formation in the presence of BAPN (Dermal human fibroblasts): prevents fiber formation

Cc1ccc2c(c1)C(=O)C1(O)CCN(c3ccccc3)C1=N2 (stereo not drawn) [blebbistatin]
elastin fiber formation in the presence of blebbistatin (human skin fibroblasts; 50 μM blebbistatin added at the same time as 125 μg/ml tropoelastin, neonatal fibroblasts): substantially impaired

+RGDS
elastin network formation (human skin fibroblasts; 125 μg/ml protein added to primary human neonatal skin fibroblasts (NHF8909) 12 days post-seeding): Spherule rather than fiber deposition
